Assay [1] deals with tau acetylation in primary neurons. Briefly: western blot of ac-tau, t-tau and p-tau in primary cortical neurons. It is filed as cell-based, rat. The method, then: (§1) Primary cultures were established from cortices of Sprague-Dawley rat pups (Charles River Laboratories) or SIRT1^F/F mice on postnatal day 0 or 1. Purified cells were plated at 160,000 cells/ml in Neurobasal medium supplemented with B27 (Invitrogen) on poly-ornithine coated plates. All treatments were performed at 7-13 DIV in Neurobasal medium supplemented with N2 (Invitrogen) unless noted otherwise.
(§2) Cells or human or mouse brain tissues were lysed in RIPA buffer containing protease inhibitor cocktail (Sigma), 1 mM phenylmethyl sulfonyl fluoride (PMSF) (Sigma), phosphatase inhibitor cocktail (Roche), and HDAC inhibitors, including 5 mM nicotinamide (Sigma) and 1 μM trichostatin A (Sigma). After sonication, lysates from human or mouse brain tissues were centrifuged at 170,000 g at 4° C. for 15 min and at 18,000 g at 4° C. for 10 min. Supernatants were collected and analyzed by western blot. Bands in immunoblots were visualized by enhanced chemiluminescence (Pierce) and quantified by densitometry and Quantity One 4.0 software (Bio-Rad, Hercules, Calif.).
(In western blotting, separated proteins are transferred to a membrane and probed.)

The next assay concerns tau transcripts. Briefly: real-time RT-PCR of tau transcripts in primary neurons. In kind it is cell-based, rat. Conditions: treatment for 8 h. The method, then:
as §1
(In general: Quantitative PCR measures a nucleic acid by following its amplification.)

For assay [2], the system named is AT8-positive p-tau in primary neurons expressing hTauP301L. Briefly: p-tau in primary neurons expressing hTauP301L. It is filed as cell-based. Conditions: 20 μM, DIV=12. The method, then: as §1
Lentivirus was generated, purified, and used for infection as described. Chen et al. (2005) supra. Recombinant lentivirus was produced by co-transfection of the shuttle vector (FUGW), two helper plasmids, delta8.9 packaging vector, and VSV-G envelope vector into 293T cells and purified by ultracentrifugation. Viral titers were measured by p24 enzyme-linked immunosorbent assays at the Gladstone-UCSF Laboratory of Clinical Virology.
Cells or human or mouse brain tissues were lysed in RIPA buffer containing protease inhibitor cocktail (Sigma), 1 mM phenylmethyl sulfonyl fluoride (PMSF) (Sigma), phosphatase inhibitor cocktail (Roche), and HDAC inhibitors, including 5 mM nicotinamide (Sigma) and 1 μM trichostatin A (Sigma). […] Supernatants were collected and analyzed by western blot. Bands in immunoblots were visualized by enhanced chemiluminescence (Pierce) and quantified by densitometry and Quantity One 4.0 software (Bio-Rad, Hercules, Calif.).

Assay [3] relates to six other acetyltransferases (serotonin N-acetyltransferase, pCAF, GCN5, Rtt109, Sas, MOZ). Conditions: C646 at 10 μM, cell-free; cited from earlier work.
In assay [4] the test system is tau ubiquitination in HEK293T cells. Briefly: in vivo ubiquitination assay in HEK293T cells. In kind it is cell-based, human. The method, then:
Procedures were modified from a published study. Oh et al. (2009) Nat Cell Biol 11:295. HEK293T cells were transfected with expression vectors encoding FLAG-tagged human tau and HA-ubiquitin with or without Myc-SIRT1 (wildtype or H363Y mutant). After 2 h of incubation, cells were treated with EX527, resveratrol, or dimethylsulfoxide (DMSO) in Dulbecco's modified Eagle's medium and incubated for 20 h. MG-132 (20 μM) was added and incubated for 4 h. Cells were lysed in ubiquitination buffer (20 mM Tris-HCl, pH 7.5, 0.1 mM EDTA, 0.2% Triton X-100, 150 mM NaCl, and protease inhibitor cocktail). Supernatant proteins were immunoprecipitated with FLAG M2 agarose beads (Sigma) for 3 h at 4° C. Reactions were washed at least three times with ubiquitination buffer and analyzed by SDS-PAGE and western blot with anti-HA antibody (Cell Signaling Technology).

The test system of assay [5] is turnover of endogenous tau in primary neurons. In words: tau turnover in primary neurons treated with cycloheximide. It is filed as cell-based, rat. The method, then:
as §1, §2
It was then directly examined whether enhancing acetylation of tau slows the turnover of endogenous tau. Primary neurons were treated with EX527 to enhance tau acetylation and with cycloheximide (CHX) to inhibit translation of new proteins. […] Consistent with this notion, ac-tau appears to be degraded slower than that of t-tau.

[6] abbreviates: EX527 50 μM, rat primary neurons DIV=10.

In the case of `CC1=NN(c2ccc(C(=O)O)cc2)C(=O)/C1=C\c1ccc(-c2cc(C)c(C)cc2[N+](=O)[O-])o1` [Compound C646], in assay [1] (20 μM, 2 h, primary cortical neurons DIV=9), the t-tau levels result was “without affecting”. For the same compound, the levels of t-tau result in assay [1] (20 μM, 8 h, primary rat cortical neurons) was “remained unchanged”; in assay [1] (20 μM, 20 h, primary cortical neurons) it was “lowered”. The “tau phosphorylated at serine 202 (AT8-positive p-tau)” value in assay [1] (20 μM, within 2 h, primary cortical neurons) is “abolished”. The ac-tau entry in assay [1] (20 μM, within 2 h, primary cortical neurons DIV=9) is given as “eliminated”. Also, the levels of ac-tau entry in assay [1] (20 μM, within 8 h, primary rat cortical neurons) is “drastically reduced”. Besides, the tau transcripts entry in the assay on tau transcripts was “did not suppress”. Also, the AT8-positive p-tau result in assay [2] is recorded as “diminished”. Moreover, the “inhibition of the six other acetyltransferases” value in assay [3] was < 10%.

For `NC(=O)C1CCCc2c1[nH]c1ccc(Cl)cc21` (stereo not shown) [EX527], in assay [1] (setting [6]), the AT8-positive p-tau result is recorded as “markedly increased”, the ac-tau entry is “markedly increased”, the “levels of ac-tau relative to t-tau” value is given as “significantly increased” and the “levels of p-tau relative to t-tau” value was “significantly increased”. Besides, in assay [1] (setting [6]), the t-tau result is “markedly increased”. In addition, in assay [4] (1-50 μM, HEK293T cells), the ac-tau levels result is “elevated”. In addition, the polyubiquitination of tau result in assay [4] (1-50 μM, HEK293T cells, with MG132) is “prevented polyubiquitination of tau in a dose-dependent manner”. Moreover, the turnover of ac-tau result in assay [5] (10 μM, CHX, primary neurons) is listed as “blocked the turnover”. Besides, the accumulation of ac-tau result in assay [5] (50 μM, CHX, primary neurons) is listed as “more pronounced accumulation”. Moreover, the “half-life of t-tau (tau turnover)” value in assay [5] (10-50 μM, CHX 0-8 h, rat primary neurons DIV=8) is listed as “increased the half-life of t-tau in a dose-dependent manner”. Moreover, the “degradation of AT8-positive p-tau” value in assay [5] (10-50 μM, CHX, primary neurons) is “blocked the degradation”.

With `Oc1ccc(C=Cc2cc(O)cc(O)c2)cc1` [resveratrol], the tau ubiquitination result in assay [4] (HEK293T cells transfected with SIRT1 H363Y mutant) is on record as “not those with H363Y mutant”; in assay [4] (HEK293T cells transfected with wildtype SIRT1), “significantly increased”.

Source of the values: patent US9040521B2, “Methods and compositions for modulating tau levels” (THE J. DAVID GLADSTONE INSTITUTES, priority 2009, dated 2015).
